Test results: the NIST ThermoML archive (doi:10.1016/j.jct.2015.01.005)

Test: molar heat capacity at saturation pressure
Settings: Crystal 2, Small (less than 1 g) adiabatic calorimetry

O[C@@H]1[C@@H](O)[C@@H]2OC[C@@H](O2)[C@H]1O [1,6-anhydro-β-D-glucopyranose]
Settings	molar heat capacity [J/K/mol]
5.26 K	0.1543
5.62 K	0.1754
5.93 K	0.2008
6.31 K	0.2396
6.75 K	0.2955
7.19 K	0.3641
7.65 K	0.4465
8.1 K	0.5445
8.57 K	0.6608
9.04 K	0.7922
9.51 K	0.9407
9.99 K	1.112
10.53 K	1.33
11.15 K	1.603
11.77 K	1.9
12.4 K	2.236
13.05 K	2.607
13.7 K	3.009
14.35 K	3.44
15.01 K	3.908
15.78 K	4.473
16.65 K	5.151
17.53 K	5.868
18.42 K	6.609
19.31 K	7.372
20.21 K	8.174
21.39 K	9.247
22.86 K	10.63
24.35 K	12.04
25.84 K	13.46
27.08 K	14.64
28.51 K	16.01
30.04 K	17.43
31.72 K	19.01
33.56 K	20.71
35.41 K	22.39
37.27 K	24
39.13 K	25.62
41.1 K	27.29
43.17 K	29.02
45.24 K	30.72
47.32 K	32.39
49.4 K	34.01
51.49 K	35.61
53.58 K	37.22
55.67 K	38.75
57.78 K	40.27
59.89 K	41.77
62 K	43.24
64.11 K	44.7
66.22 K	46.15
68.34 K	47.58
70.46 K	49
72.68 K	50.47
75.01 K	51.98
77.35 K	53.49
78.72 K	54.4
79.68 K	54.97
80.68 K	55.63
80.76 K	55.68
82.03 K	56.47
82.6 K	56.8
82.68 K	56.86
84.52 K	57.99
84.6 K	58.06
86.44 K	59.2
86.52 K	59.23
88.37 K	60.4
88.45 K	60.45
90.29 K	61.6
90.37 K	61.65
92.23 K	62.79
92.3 K	62.82
94.16 K	63.97
94.23 K	64.01
96.1 K	65.16
96.17 K	65.21
98.04 K	66.35
98.11 K	66.41
99.98 K	67.6
100.05 K	67.69
101.92 K	69.02
101.99 K	69.12
103.87 K	70.46
103.93 K	70.5
105.82 K	71.75
105.88 K	71.76
107.77 K	72.94
107.83 K	72.96
109.73 K	74.07
109.79 K	74.13
111.69 K	75.2
111.75 K	75.25
113.65 K	76.35
113.71 K	76.37
115.61 K	77.45
115.67 K	77.49
117.58 K	78.55
117.64 K	78.6
119.55 K	79.66
119.61 K	79.69
121.58 K	80.81
123.55 K	81.91
125.53 K	83.02
127.51 K	84.1
129.49 K	85.22
131.47 K	86.32
133.45 K	87.41
135.44 K	88.53
137.43 K	89.66
139.41 K	90.74
141.41 K	91.84
143.4 K	92.95
145.4 K	94.05
147.39 K	95.15
149.39 K	96.28
151.39 K	97.39
153.39 K	98.5
155.4 K	99.63
157.4 K	100.7
159.41 K	101.8
161.42 K	103
163.43 K	104.1
165.44 K	105.2
167.46 K	106.4
169.47 K	107.5
171.49 K	108.6
173.51 K	109.8
175.53 K	110.9
177.54 K	112
179.56 K	113.2
181.59 K	114.4
183.61 K	115.5
185.63 K	116.7
187.66 K	117.8
189.68 K	119
191.71 K	120.2
193.74 K	121.4
195.77 K	122.5
197.79 K	123.7
199.82 K	124.9
201.86 K	126.1
203.89 K	127.3
205.92 K	128.5
207.96 K	129.7
209.99 K	130.9
212.02 K	132.1
214.06 K	133.3
216.09 K	134.5
218.13 K	135.7
220.17 K	137
222.21 K	138.2
224.25 K	139.4
226.29 K	140.7
228.33 K	141.9
230.36 K	143.2
232.4 K	144.5
234.45 K	145.8
236.49 K	147
238.53 K	148.3
240.57 K	149.6
242.62 K	150.8
244.66 K	152.1
246.7 K	153.4
248.74 K	154.7
250.79 K	156.1
252.83 K	157.3
254.87 K	158.6
256.92 K	160
258.96 K	161.3
260.23 K	162.2
261.01 K	162.6
262.15 K	163.5
263.05 K	163.9
264.2 K	164.7
265.1 K	165.3
266.25 K	166
267.14 K	166.6
268.29 K	167.4
269.19 K	167.9
270.34 K	168.8
271.23 K	169.2
272.38 K	170.1
273.28 K	170.7
274.43 K	171.3
275.32 K	172
276.48 K	172.8
277.37 K	173.3
278.52 K	174.2
279.42 K	174.8
280.57 K	175.4
281.47 K	176.1
282.61 K	176.8
283.51 K	177.3
284.66 K	178.2
285.56 K	178.8
286.7 K	179.6
287.61 K	180.1
288.75 K	180.9
289.65 K	181.5
290.79 K	182.4
291.7 K	182.9
292.84 K	183.6
293.74 K	184.3
294.88 K	185.1
295.79 K	185.6
296.92 K	186.3
297.83 K	187
298.97 K	187.9
299.88 K	188.4
301.01 K	189.4
301.92 K	189.8
303.05 K	190.6
303.97 K	191.3
305.1 K	192.1
306.02 K	192.6
307.14 K	193.5
308.06 K	194.1
309.19 K	195.1
310.11 K	195.5
311.24 K	196.5
312.16 K	197
313.28 K	197.9
314.21 K	198.4
315.33 K	199.3
316.26 K	199.9
317.38 K	200.9
318.31 K	201.4
319.43 K	202.3
320.36 K	202.9
321.48 K	203.7
322.42 K	204.4
323.53 K	205.4
324.47 K	206
325.58 K	206.9
326.52 K	207.5
327.64 K	208.4
328.57 K	209.1
329.69 K	210.1
330.63 K	210.6
331.74 K	211.7
332.69 K	212.3
333.8 K	213.3
334.74 K	214
335.85 K	215.1
336.8 K	215.7
337.91 K	216.8
338.86 K	217.5
339.97 K	218.6
340.91 K	219.3
342.02 K	220.5
342.97 K	221.2
344.08 K	222.5
345.03 K	223.2
346.14 K	224.6
347.09 K	225.4
348.19 K	226.9
349.14 K	227.7
350.25 K	229.3
351.21 K	230.1
352.31 K	231.9
353.27 K	232.8
354.37 K	234.7
355.33 K	235.6
356.43 K	237.6
357.38 K	238.7
358.48 K	240.7
359.44 K	242.1
360.54 K	244.1
361.49 K	245.9
362.59 K	248.2
363.55 K	249.9
364.64 K	252.8
365.6 K	255.1
366.69 K	258.7
367.64 K	261.8
368.73 K	265.9
